Test results from PubChem BioAssay AID463074 (Broad Institute, 2010).
Activity calls are given as the source filed them.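 How the source made its calls: active means AC50 no more than tenfold above the top dose tested, or full inhibition at every dose with a flat fit (cut at about 19 µM in these data); inconclusive means flat curve fit with inhibition between 30% and 70%, or poor fit; inactive means AC50 more than tenfold above the top dose tested.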

Tested on: HMLE_sh_eGFP viability, CellTiter-Glo luminescence, 72 h
Test: viability loss of HMLE_sh_eGFP cells – cell-based, luminescence, counter-screen for HMLE_sh_ECad selective toxicity project, dose response (AID 463074);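 further: counterscreen control line to flag general toxicity for the HMLE_sh_ECad screen; potency for loss of viability as luminescence drops below DMSO wells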

Row | SMILES | AC50
1 | COc1ccc(NS(=O)(=O)c2cc(NC(=O)c3ccc(=O)[nH]c3)ccc2N2CCCC2)cc1 | 1.1 µM
2 | COc1ccc2c(c1)C(=O)[C@H](O)[C@@H](c1ccc(OC)c(Br)c1)O2 | 3.61 µM
3 | CCC/C(=C1/c2ccccc2C(=O)N1c1ccccc1)c1ccc2[nH]ccc2c1 | 1.67 µM
4 | O=C(NNc1ccccc1)C(=O)N1CCCCC1 | 3.16 µM
5 | Cc1sc(-n2c(C)cc(/C=C3\SC(=S)NC3=O)c2C)c(C#N)c1C | 4.72 µM
6 | C=CCC[C@H](Cc1ccc(F)cc1)C(=O)OC[C@@H](Cc1c[nH]c2ccccc12)NC(=O)[C@@H](CC=C)CC(=O)N(CCO)Cc1ccccc1 | 4.34 µM
7 | Cc1ccc(-c2cc(C(=O)N/N=C/c3ccccc3O)n[nH]2)o1 | 10.2 µM
8 | CCCCn1c(=O)c(C(=O)NCc2ccccc2)c(O)c2ccccc21 | 8.36 µM
9 | CCc1ccc(-c2cc(C(=O)N/N=C/c3c[nH]c4ccccc34)[nH]n2)cc1 | 12.6 µM
10 | C[C@@H](CSc1ccc(Br)cc1)CN1CC[C@H](NC(=O)OCc2ccccc2)CCC1=O | 5.5 µM
11 | O=C(/C=C/c1ccncc1)c1ccc(NC(=O)c2ccccc2F)cc1 | 4.38 µM
12 | O=C(O)c1ccc(CSc2nc(-c3ccc(Cl)cc3)cc(C(F)(F)F)n2)cc1 | 9.94 µM
13 | Cc1ccc([N+](=O)[O-])cc1-c1ccc(/C=C(\C#N)c2[nH]nc(N)c2C#N)o1 | 4.84 µM
14 | Oc1ccc(/C=N/Nc2nc(-c3ccc(Cl)cc3)cc(C(F)(F)F)n2)cc1 | 6.82 µM
15 | CN1CCN(C2=Cc3ccc(Cl)cc3Sc3ccc(F)cc32)CC1 | 6.74 µM
16 | CC(=O)c1c(C)oc2c1C(=O)c1ccccc1C2=O | 4.4 µM
17 | Cc1cccc(CN2C(=O)/C(=C\c3ccc(C(=O)NCCCN4CCN(C)CC4)cc3)Oc3ccccc32)c1 | 3.62 µM
18 | CCCCCCC(C)(C)c1ccc([C@@H]2C[C@H](O)CC[C@H]2CCCO)c(O)c1 | 3.5 µM
19 | O=C(Nc1nc(-c2cc(Cl)sc2Cl)cs1)c1cccs1 | 2.42 µM
20 | CCOC(=O)c1sc(NC(=O)c2cc(-c3ccccc3C)nc3ccccc23)c(C#N)c1C | 5.17 µM
21 | CCc1c(C2(O)CCCCC2)[nH]c2cc(C(F)(F)F)ccc12 | 3.15 µM
22 | COc1ccc(Br)cc1C(=O)NC(=S)Nc1cc(-c2nc3ccccc3[nH]2)ccc1C | > 19.5 µM (inactive)
23 | O=C(N/N=C/c1c[nH]c2ccccc12)C1CC1(c1ccccc1)c1ccccc1 (stereo not drawn) | 7.04 µM
24 | CCN1CCN(c2ccc(NC(=O)CCc3c(C)nc4c(-c5ccc(F)cc5)c(C)nn4c3C)cc2)CC1 | 5.22 µM
25 | CN1CCN(Cc2nc3ccccc3c(=O)n2Cc2nc(-c3ccc4ccccc4c3)cs2)CC1 | 3.59 µM

Row | SMILES | AC50
26 | N#CCSc1nc2ccccc2c2nc3ccccc3n12 | 5.1 µM
27 | CCOC(=O)N1CCN(c2ccc(C(=O)c3cccc(F)c3)cc2)CC1 | > 19.5 µM (inactive)
28 | CC(C)(Oc1ccc(Cl)cc1)C(=O)NC1=NN(c2ccccc2)C(=O)C1 | 6.11 µM
29 | C[C@@H]1O[C@@H](O[C@H]2C[C@@H](O)[C@]3(CO)[C@H]4[C@H](O)C[C@]5(C)[C@@H](C6=CC(=O)OC6)CC[C@]5(O)[C@@H]4CC[C@]3(O)C2)[C@H](O)[C@H](O)[C@H]1O | < 0.16 µM
30 | c1ccc2c(-c3ccc(OCCN4CCCCC4)cc3)c(-c3ccsc3)sc2c1 | 2.72 µM
31 | COc1ccc(-c2nc(N)nc(C)c2Oc2ccccc2Br)c(O)c1 | 5.08 µM
32 | CC(C)(C)c1cc(NCc2ccccn2)n2ncc(-c3ccccc3)c2n1 | 6.85 µM
33 | CN(C)CCNC=C(C(=O)Nc1ccc(Cl)cc1Cl)C(=O)Nc1ccc(Cl)cc1Cl | 9.23 µM
34 | COc1ccc(-c2sc3ccc(N4CCOCC4)cc3c2C#CCCO)cc1 | 4.73 µM
35 | O=C(CSC1=NNC(c2ccccn2)S1)Nc1ccc(C(F)(F)F)cc1 (stereo not drawn) | 4.27 µM
36 | COCCNC(=O)NC1(C(F)(F)F)Oc2ccc(Cl)cc2O1 (stereo not drawn) | 17.6 µM
37 | Cc1ccc(/C=C/C(=O)NCCc2ccccc2)o1 | > 19.5 µM (inactive)
38 | C/C(=N\NC(=O)c1cccc(Cl)c1)C1C(=O)c2ccccc2C1=O | 20.1 µM
39 | Cc1nc(SCc2nc3ccc(C(F)(F)F)cc3[nH]2)c2oc3ccccc3c2n1 | 5.23 µM
40 | Cc1nc(Nc2ccc(Cl)cc2Cl)sc1C(=O)Nc1ccccc1 | 11.5 µM
41 | O=C(Nc1nccs1)c1ccc(COc2ccccc2Cl)o1 | 10.8 µM
42 | Cc1ccccc1-c1cc(C(=O)Nc2sc(C(=O)OC(C)C)c(C)c2C#N)c2ccccc2n1 | 2.66 µM
43 | CCOc1cc2c(cc1OCC)-n1cccc1C(c1ccc(C(C)C)cc1)NC2 (stereo not drawn) | 6.13 µM
44 | COc1ccc(Cc2nnc(N/N=C/c3ccc(O)cc3O)[nH]c2=O)cc1OC | 8.14 µM
45 | Cc1ccc2[nH]c3nc(N/N=C/c4cccc(O)c4)nnc3c2c1 | 0.248 µM
46 | COc1ccc(-c2oc3c4c(cc(OC)c3c(=O)c2CC=C(C)C)OC(C)(C)C=C4)c(OC)c1 | 7.18 µM
47 | Cc1cc(Nc2nc(Cl)c(Cl)cc2Cl)n(-c2ccccc2)n1 | 11.3 µM
48 | Cc1ccc(C)c(NC(=O)CSc2nc3nc(-c4cccs4)cc(C(F)(F)F)c3c(=O)[nH]2)c1 | 4.39 µM
49 | COc1ccc(-c2sc3cc4c(cc3c2C#CC2(O)CCCCC2)OCO4)cc1 | 6.35 µM
50 | O=c1[nH]c(NNC(=S)NCc2ccccc2)nc2c1C1(CCCCC1)Cc1ccccc1-2 | 3.91 µM

Row | SMILES | AC50
51 | O=C(Nc1ccc(Cl)c(Cl)c1)Nc1ccccc1O | 12.4 µM
52 | COc1ccc(Br)cc1C(C[N+](=O)[O-])c1c(N)n(C)c(=O)n(C)c1=O (stereo not drawn) | 4.93 µM
53 | COC(=O)c1sc(-c2ccc(C(C)(C)C)cc2)cc1NC(=O)/C=C/C(=O)O | 4.28 µM
54 | Cc1oc(CC(C)C)cc1C(=O)Nc1cccc2ccccc12 | 5.98 µM
55 | C/C(=N\NC(=S)NC(C)C)c1ccc(C(C)(C)C)cc1 | 10 µM
56 | CCC1C=CC=CC[C@H](C)[C@@H](O)[C@](C)(O)C(=O)[C@@H](C)[C@H](O)[C@@H](C)C(=O)[C@H](C)[C@@H](O)[C@H](C)C=CC(=O)OC2[C@@H](C)C(CC1)OC1(CC[C@@H](C)C(C[C@H](C)O)O1)[C@@H]2C (stereo partly drawn) | 3.2 µM
57 | CC1=C(C(=O)OC2CCCCCCC2)C(c2cc3c(cc2Br)OCO3)CC(=O)N1 (stereo not drawn) | 2.57 µM
58 | CCCCCCc1cc2cc(-c3nnc(-c4cc(OC)c(OC)c(OC)c4)o3)c(=O)oc2cc1O | 5.89 µM
59 | CC12CCC3C(CC=C4CC(O)CCC43C)C1C/C(=C\c1ccccc1F)C2=O (stereo not drawn) | 4.04 µM
60 | Brc1cccc(OCCN2CCc3ccccc3C2)c1 | > 19.5 µM (inactive)
61 | CN(CC(=O)Nc1cccc(F)c1)C(=O)c1cn(-c2ccccc2)nc1-c1ccc(Cl)cc1 | 3.85 µM
62 | O=C(/C=C/c1ccc(Cl)cc1)c1ccc([N+](=O)[O-])o1 | 2.19 µM
63 | O=C(N/N=C/c1cc(Cl)ccc1O)C(=O)Nc1ccccc1OC(F)(F)C(F)F | 3.9 µM
64 | COc1cccc(Nc2nc(-c3cccs3)nc3ccccc23)c1 | 7.32 µM
65 | CC1=CC(C)[C@H](/C=N/n2c(=O)[nH]c3c([nH]c4ccc(Br)cc43)c2=O)C(C)C1 (stereo partly drawn) | 1.46 µM
66 | O=C(COCC(=O)Nc1cccc(C(F)(F)F)c1)Nc1cccc(C(F)(F)F)c1 | 7.59 µM
67 | O=C(CCSc1ccc(Cl)cc1)N1CCN(c2ccc(O)cc2)CC1 | 1.48 µM
68 | CCOC(=O)c1ccc(Nc2cc(C)nc(-c3ccccc3)n2)cc1 | 3.71 µM
69 | O=C(NCc1cccnc1)c1ccc(NC(=O)c2ccc(Br)cc2)cc1 | 3.11 µM
70 | COc1ccc(NC(=O)c2cc3ccccc3cc2O)cc1 | 8.3 µM
71 | Cc1ccc(OCCN2CCN(c3nc(NCc4ccco4)c4ccccc4n3)CC2)cc1 | 4.66 µM
72 | COC(=O)c1c(-c2ccc(OC)cc2)oc2ccc(-c3cc(OC)c(OC)c(OC)c3)cc12 | 4.97 µM
73 | Cc1cc(Nc2ccccc2)nc(-c2ccccc2O)n1 | 7.92 µM
